# Assay: gradient 5% acetonitrile 3 min, to 50% in 2 min, to 85% in 15 min, held 3 min, 100 µL/min
# Conditions: column: Zorbax Extend-C18 2.1 x 50 mm; eluents: water / acetonitrile, 0.1% formic acid
# Procedure, shortened: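 The system's dead and dwell volumes were 40 μL and 900 μL, with a Zorbax Extend-C18 column (2.1 × 50 mm, 1.8 μm) run at 100 μL/min in water and acetonitrile containing 0.1% formic acid each. Pure standards were analyzed in mixtures of ~100 molecules by HPLC–quadrupole time-of-flight mass spectrometry in positive and negative ionization mode. Retention time was assigned from computationally picked, manually inspected adduct peaks.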
row,RP-LC retention time [s],SMILES
1,744,CN(CC1CCOC1)C(=O)Nc1cc(F)cc(F)c1 (configuration not stated)
2,664,O=C(NCCN1CCOCC1)c1csc(N2CCN(c3ccc(F)cc3)CC2)n1
3,677,Cc1nc(Nc2nccc(-c3ccccc3)n2)nc2ccccc12
4,1070,CC(CCc1ccccc1)NC(=O)CN1CCCN(Cc2ccccc2Cl)S1(=O)=O (configuration not stated)
5,961,Cc1ccc(N2CC(c3noc(-c4nccc5ccccc45)n3)CC2=O)cc1 (configuration not stated)
6,770,CCCN1CCn2cc(S(=O)(=O)Nc3ccc(OC)c(Cl)c3)cc2C1=O
7,805,CCOc1ccc(S(=O)(=O)N2CCCC2C(=O)Nc2nnc(CC)s2)cc1 (configuration not stated)
8,763,COc1ccc(-c2nc3sc(C(=O)N4CCOCC4)c(C)n3c2NC(C)(C)C)cc1
9,597,FC(F)(F)Oc1ccccc1CN1CCC[C@H]1c1nc(C2CCOCC2)n[nH]1
10,773,Cc1cc(S(=O)(=O)N2CCN(C3CCN(CCC(C)C)C3=O)CC2)ccc1Cl (configuration not stated)
11,757,CS(=O)(=O)c1ccccc1C(=O)Nc1ccc2sccc2c1
12,740,CN(CCC#N)c1ccc(NC(=O)c2ccc(Br)cc2)cc1C(=O)O
13,639,COc1cccc(CCC(=O)NCC(=O)Nc2nc3ccccc3[nH]2)c1
14,659,Cc1ccc(C(=O)N2CCC(n3c(=O)n(C)c4cncnc43)CC2)s1
15,744,CN(c1ccccc1)S(=O)(=O)c1ccc(C(=O)Nc2nnc(C3=COCCO3)o2)cc1
16,756,COC(=O)c1ccc2c(=O)n(CCc3ccccc3)c(N3CCN(c4ccccn4)CC3)nc2c1
17,586,Cn1c(CNC(=O)C2CCC2)nc2c1CN(S(=O)(=O)Cc1ccc(Cl)cc1)CC2
18,596,Cc1nc(-c2cccc(C(=O)NC(C)C)c2)no1
19,950,O=C(c1ccccc1OCc1nc(-c2ccccc2)no1)N1CCCCC1
20,939,CCOc1ccc(NC(=O)Nc2nccn(-c3ccc(F)cc3)c2=O)cc1
21,593,CCc1cc(N2CCN(C(=O)c3cc(OC)c(OC)c(OC)c3)CC2)nc2nncn12
22,673,Cc1ccn2c(Nc3ccccc3C)c(-c3cccc(O)c3)nc2c1

row,RP-LC retention time [s],SMILES
1,898,CCc1cccc(NC(=O)Cn2c(=O)nc(N3CCC(C)CC3)c3ccccc32)c1
2,1170,O=C(NCCC1=CCCCC1)C1CCCN(c2nccnc2Sc2ccccc2)C1 (configuration not stated)
3,658,COC(=O)c1cccc(NC(=O)C2CCN(c3cc(N4CCCC4)ncn3)CC2)c1
4,808,C[C@@H]1CCO[C@H]2Cn3cc(C(=O)NCc4ccc(F)cc4F)c(=O)c(O)c3C(=O)N12
5,859,Cc1sc(NC(=O)c2ccccc2Br)nc1-c1ccc2c(c1)NC(=O)CO2
6,572,CC(C)Cn1c(=O)c(N2CCN(C(=O)NCc3ccccc3)CC2)nc2ccncc21
7,667,Cc1ccc(NC(=O)Cn2cnc(C)c(C)c2=O)c(F)c1
8,604,COc1ccc(C(=O)NCCc2ccc(S(N)(=O)=O)cc2)nn1
9,984,COc1ccc(OCc2nc(-c3ccc4oc(C)nc4c3)no2)cc1
10,784,COc1cccc(C(=O)NCc2nnnn2C2CCCCC2)c1OC
11,834,O=C(Cn1ccc2sccc2c1=O)Nc1cccc(C(F)(F)F)c1
12,831,CCc1nc2c(NC(=O)c3sccc3C)cccn2n1
13,1050,CCOc1ccc(-n2c(-c3ccc(Cl)cc3)cn3c4c(=O)n(C)c(=O)n(C)c4nc23)cc1
14,641,COc1ccc(S(=O)(=O)NC2CCc3nnc(C)n3CC2)cc1Cl (configuration not stated)
15,833,COc1ccc2cc3c(=O)n(Cc4ccccc4)nc-3oc2c1
16,556,Cc1ccc(NC(=O)Cn2c(NCCN3CCOCC3)nc3ccccc32)cc1
17,619,Cc1nc(C(=O)N2CCN(Cc3ccc(C)c(C)c3)CC2)c(C)o1
18,568,COCC1(O)CCOC2(CCN(Cc3ccc(C)cn3)CC2)C1 (configuration not stated)
19,609,O=C(Nc1ccc(-c2nnc3n2CCCC3)cc1)c1ccco1
20,1140,Cc1ccc(F)cc1NC(=O)Cn1nc(N2CCCCCC2)c2ccccc2c1=O
21,769,CNC(=O)c1ccc2c(c1)CCCN2S(=O)(=O)c1ccccc1
22,712,CC(=O)N(C1CCOCC1)C1CCN(S(=O)(=O)c2ccccc2)CC1

row,RP-LC retention time [s],SMILES
1,1060,CC(C)c1noc(-c2cc(=O)n(CC(=O)Nc3ccc(Cl)cc3)c3ccccc23)n1
2,804,CCn1c(SC)nnc1-c1nn(C)c2c1CN(C(=O)c1ccc(F)c(F)c1)CC2
3,1070,CCCCN(CC)c1ccc(C(=O)O)cc1NC(=O)c1cccs1
4,616,O=C(C1CCCC1)N1CCC(CCOc2ccncc2)CC1
5,853,O=C(Nc1ccc2c(c1)OCCO2)N1CC(c2nc(CCOCc3ccccc3)no2)C1
6,606,CN(C)CCn1ccc2ccn(CC(=O)NCc3ccccc3)c(=O)c21
7,918,COc1ccc(OC)c(CCNc2nc(-c3ccc(OC)c(OC)c3)no2)c1
8,711,CC(C)CNC(=O)C1CCN(C(=O)c2ncn3c2COC(c2ccc(F)cc2)C3)CC1 (configuration not stated)
9,566,O=C(CCc1nnc2ccc(N3CCOCC3)nn12)N1CCN(c2ccccn2)CC1
10,926,O=C(C1CC1)N1CCN(S(=O)(=O)c2cc(-c3noc(C4CCC4)n3)cs2)CC1
11,676,COc1ccc(C(=O)NC2CCN(c3cc(-c4cccs4)[nH]n3)C2)cn1 (configuration not stated)
12,1050,O=S(=O)(Oc1ccc(Cl)cc1)c1cccc2cccnc12
13,892,Cn1c(C(=O)N2CCCC(C(=O)N3CCN(c4ccccc4)CC3)C2)cc2sccc21 (configuration not stated)
14,840,CC(=O)N1CCc2sc(C(=O)N3CCN(c4cccc(Cl)c4)CC3)cc2C1
15,746,CCSc1nnc(-c2nn(C)c3c2CN(C(=O)c2c(F)cccc2F)CC3)n1C
16,862,CC1=C(c2ccccc2)S(=O)(=O)N=C1N1CCCN(C(=O)c2cccc(Cl)c2)CC1
17,673,O=C(Nc1cccc(-c2nnc3n2CCCC3)c1)C1CCCC1
18,787,Cc1ccc(C)c(S(=O)(=O)N2CCC3(CC2)NCCN=C3NCc2ccccc2C)c1
19,815,Cc1nc2ncnn2c(C)c1CCC(=O)N1CCC(Cc2ccccc2)CC1
20,599,NC(=O)C1CCN(C(=O)C2CCN(C(=O)C3CC(=O)N(c4ccc(F)cc4)C3)CC2)CC1 (configuration not stated)
21,988,CC(C(=O)NCCc1c[nH]c2ccccc12)C1CCN(S(=O)(=O)c2ccc(Cl)s2)CC1 (configuration not stated)

row,SMILES,RP-LC retention time [s]
1,COc1cccc(C(=O)N2CCC3(CC2)c2nccn2-c2ccccc2CN3C)c1,612
2,CN1C2CCC1CC(OC(c1ccccc1)c1ccc(Cl)cc1)C2 (configuration not stated),862

# Source: the METLIN SMRT retention time set (Domingo-Almenara et al. 2019)
